Patent US11053204B2, “Pyrimidinyloxy benzene derivatives as herbicides” (FMC Corporation, priority 2015, dated 2021)

Assays:
Assay type in all cases: in vivo
[1] = tested on: Italian ryegrass (Lolium multiflorum); experiment: Test A preemergence, visual injury rating; conditions: 0 to 100 scale (0 no effect, 100 complete control)
From the text: (§1) Seeds of plant species selected from barnyardgrass (Echinochloa crus-galli), kochia (Kochia scoparia), ragweed (common ragweed, Ambrosia elatior), Italian ryegrass (Lolium multiflorum), large (Lg) crabgrass (Digitaria sanguinalis), giant foxtail (Setaria faberii), morningglory (Ipomoea spp.), pigweed (Amaranthus retroflexus), velvetleaf (Abutilon theophrasti), wheat (Triticum aestivum), and corn (Zea mays) were planted into a blend of loam soil and sand and treated preemergence with a directed soil spray using test chemicals formulated in a non-phytotoxic solvent mixture which included a surfactant.
(§2) At the same time, plants selected from these crop and weed species and also blackgrass (Alopecurus myosuroides), and galium (catchweed bedstraw, Galium aparine) were planted in pots containing the same blend of loam soil and sand and treated with postemergence applications of test chemicals formulated in the same manner. Plants ranged in height from 2 to 10 cm and were in the one- to two-leaf stage for the postemergence treatment. Treated plants and untreated controls were maintained in a greenhouse for approximately 10 days, after which time all treated plants were compared to untreated controls and visually evaluated for injury. Plant response ratings, summarized in Table A, are based on a 0 to 100 scale where 0 is no effect and 100 is complete control. A dash (-) response means no test result.

[2] = tested on: barnyardgrass (Echinochloa crus-galli); experiment: Test A preemergence, visual injury rating; conditions: 0 to 100 scale (0 no effect, 100 complete control)
From the text: as §1, §2

[3] = tested on: giant foxtail (Setaria faberii); experiment: Test A preemergence, visual injury rating; conditions: 0 to 100 scale (0 no effect, 100 complete control)
From the text: as §1, §2

kochia (Kochia scoparia) [4] = experiment: Test A preemergence, visual injury rating; conditions: 0 to 100 scale (0 no effect, 100 complete control)
From the text: as §1, §2

[5] = tested on: pigweed (Amaranthus retroflexus); experiment: Test A preemergence, visual injury rating; conditions: 0 to 100 scale (0 no effect, 100 complete control)
From the text: as §1, §2

[6] = tested on: ragweed (common ragweed, Ambrosia elatior); experiment: Test A preemergence, visual injury rating; conditions: 0 to 100 scale (0 no effect, 100 complete control)
From the text: as §1, §2

[7] = tested on: Italian ryegrass (Lolium multiflorum); experiment: Test A postemergence, visual injury rating; conditions: 0 is no effect, 100 is complete control
From the text: as §1, §2

[8] = tested on: barnyardgrass (Echinochloa crus-galli); experiment: Test A postemergence, visual injury rating; conditions: 0 is no effect, 100 is complete control
From the text: as §1, §2

[9] = tested on: blackgrass (Alopecurus myosuroides); experiment: Test A postemergence, visual injury rating; conditions: 0 is no effect, 100 is complete control
From the text: as §1, §2

corn (Zea mays) = experiment: Test A postemergence, visual injury rating; conditions: 0 is no effect, 100 is complete control
From the text: as §1, §2

[10] = tested on: galium (catchweed bedstraw, Galium aparine); experiment: Test A postemergence, visual injury rating; conditions: 0 is no effect, 100 is complete control
From the text: as §1, §2

[11] = tested on: giant foxtail (Setaria faberii); experiment: Test A postemergence, visual injury rating; conditions: 0 is no effect, 100 is complete control
From the text: as §1, §2

kochia (Kochia scoparia) [12] = experiment: Test A postemergence, visual injury rating; conditions: 0 is no effect, 100 is complete control
From the text: as §1, §2

[13] = tested on: pigweed (Amaranthus retroflexus); experiment: Test A postemergence, visual injury rating; conditions: 0 is no effect, 100 is complete control
From the text: as §1, §2

[14] = tested on: ragweed (common ragweed, Ambrosia elatior); experiment: Test A postemergence, visual injury rating; conditions: 0 is no effect, 100 is complete control
From the text: as §1, §2

[15] = tested on: wheat (Triticum aestivum); experiment: Test A postemergence, visual injury rating; conditions: 0 is no effect, 100 is complete control
From the text: as §1, §2

[16] = tested on: barnyardgrass (Echinochloa crus-galli); experiment: Test B flooded paddy test, plant response rating; conditions: 250 g ai/ha; Flood; scale of 0 to 100 where 0 is no effect and 100 is complete control; 13 to 15 days
From the text: (§3) At time of treatment, test pots were flooded to 3 cm above the soil surface, treated by application of test compounds directly to the paddy water, and then maintained at that water depth for the duration of the test. Treated plants and controls were maintained in a greenhouse for 13 to 15 days, after which time all species were compared to controls and visually evaluated. […] A dash (-) response means no test result.

[17] = tested on: ducksalad (Heteranthera limosa); experiment: Test B flooded paddy test, plant response rating; conditions: 250 g ai/ha; Flood; scale of 0 to 100 where 0 is no effect and 100 is complete control; 13 to 15 days
From the text: as §3

rice (Oryza sativa) = experiment: Test B flooded paddy test, plant response rating; conditions: 250 g ai/ha; Flood; scale of 0 to 100 where 0 is no effect and 100 is complete control; 13 to 15 days
From the text: as §3

[18] = tested on: sedge, umbrella (small-flower umbrella sedge, Cyperus difformis); experiment: Test B flooded paddy test, plant response rating; conditions: 250 g ai/ha; Flood; scale of 0 to 100 where 0 is no effect and 100 is complete control; 13 to 15 days
From the text: as §3

[19] = 125 g ai/ha, 0 to 100 scale, approximately 10 days

Structure (SMILES)	Ryegrass, Italian plant response rating ([1]; 125 g ai/ha)	Ryegrass, Italian plant response rating ([1]; 500 g ai/ha)	Barnyardgrass plant response rating ([2]; 125 g ai/ha)	Barnyardgrass plant response rating ([2]; 500 g ai/ha)	Foxtail, Giant plant response rating ([3]; 125 g ai/ha)	Foxtail, Giant plant response rating ([3]; 500 g ai/ha)	Kochia plant response rating (kochia (Kochia scoparia) [4]; 125 g ai/ha)	Kochia plant response rating (kochia (Kochia scoparia) [4]; 500 g ai/ha)	Pigweed plant response rating ([5]; 125 g ai/ha)	Pigweed plant response rating ([5]; 500 g ai/ha)	Ragweed plant response rating ([6]; 500 g ai/ha)	Ryegrass, Italian plant response rating (0 to 100 scale) ([7]; 500 g ai/ha)	Barnyardgrass plant response rating (0 to 100 scale) ([8]; 500 g ai/ha)	Blackgrass plant response rating (0 to 100 scale) ([9]; 500 g ai/ha)	Corn plant response rating (0 to 100 scale) (corn (Zea mays); 500 g ai/ha)	Galium plant response rating (0 to 100 scale) ([10]; 500 g ai/ha)	Foxtail, Giant plant response rating (0 to 100 scale) ([11]; 500 g ai/ha)	Pigweed plant response rating (0 to 100 scale) ([13]; 500 g ai/ha)	Ragweed plant response rating (0 to 100 scale) ([14]; 500 g ai/ha)	Wheat plant response rating (0 to 100 scale) ([15]; 500 g ai/ha)	also measured
O=C(OCCC(F)(F)F)c1c(F)cccc1Oc1ncc(Cl)cn1 [Compound 42]	0	0	0	0	0	0	0	0	0	30	0	0	0	0	30	0	0	90	0	0	Ragweed plant response rating ([6]; 125 g ai/ha): 0; Ryegrass, Italian plant response rating (0 to 100 scale) ([7]; 125 g ai/ha): 0; Barnyardgrass plant response rating (0 to 100 scale) ([8]; 125 g ai/ha): 0; Blackgrass plant response rating (0 to 100 scale) ([9]; 125 g ai/ha): 0; Corn plant response rating (0 to 100 scale) (corn (Zea mays); 125 g ai/ha): 20; Galium plant response rating (0 to 100 scale) ([10]; 125 g ai/ha): 0; Foxtail, Giant plant response rating (0 to 100 scale) ([11]; 125 g ai/ha): 0; Kochia plant response rating (0 to 100 scale) (kochia (Kochia scoparia) [12]; 125 g ai/ha): 30; Kochia plant response rating (0 to 100 scale) (kochia (Kochia scoparia) [12]; 500 g ai/ha): 60; Pigweed plant response rating (0 to 100 scale) ([13]; 125 g ai/ha): 80; Ragweed plant response rating (0 to 100 scale) ([14]; 125 g ai/ha): 0; Wheat plant response rating (0 to 100 scale) ([15]; 125 g ai/ha): 0
O=C(OCCCC(F)(F)F)c1c(Oc2ncc(Cl)cn2)cccc1C(F)(F)F [Compound 65]	10	30	30	100	100	100	60	90	100	100	80	0	70	40	20	70	90	100	30	0	Ragweed plant response rating ([6]; 125 g ai/ha): 0; Ryegrass, Italian plant response rating (0 to 100 scale) ([7]; 125 g ai/ha): 0; Barnyardgrass plant response rating (0 to 100 scale) ([8]; 125 g ai/ha): 30; Blackgrass plant response rating (0 to 100 scale) ([9]; 125 g ai/ha): 20; Corn plant response rating (0 to 100 scale) (corn (Zea mays); 125 g ai/ha): 10; Galium plant response rating (0 to 100 scale) ([10]; 125 g ai/ha): 20; Foxtail, Giant plant response rating (0 to 100 scale) ([11]; 125 g ai/ha): 40; Pigweed plant response rating (0 to 100 scale) ([13]; 125 g ai/ha): 90; Ragweed plant response rating (0 to 100 scale) ([14]; 125 g ai/ha): 10; Wheat plant response rating (0 to 100 scale) ([15]; 125 g ai/ha): 0; Plant response rating, Barnyardgrass [16]: 0; Plant response rating, Ducksalad [17]: 70; Plant response rating, Rice (rice (Oryza sativa)): 0; Plant response rating, Sedge, Umbrella [18]: 85
CCOCc1c(Br)cccc1Oc1ncc(Cl)cn1 [Compound 106]		10	0	100		100		90		70	0	0	100	20	10	10	70	20	0	0	Plant response rating, Ryegrass, Italian ([1]; 125 g ai/ha): 0; Plant response rating, Foxtail, Giant ([3]; 125 g ai/ha): 80; Plant response rating, Kochia (kochia (Kochia scoparia) [4]; 125 g ai/ha): 30; Plant response rating, Pigweed ([5]; 125 g ai/ha): 30; Plant response rating, Ragweed ([6]; 125 g ai/ha): 0; Ryegrass, Italian plant response rating [7, 19]: 0; Barnyardgrass plant response rating [8, 19]: 40; Blackgrass plant response rating [9, 19]: 0; Corn plant response rating (corn (Zea mays); [19]): 0; Galium plant response rating [10, 19]: 0; Foxtail, Giant plant response rating [11, 19]: 10; Pigweed plant response rating [13, 19]: 10; Ragweed plant response rating [14, 19]: 0; Wheat plant response rating [15, 19]: 0; Plant response rating, Barnyardgrass [16]: 0; Plant response rating, Ducksalad [17]: 0; Plant response rating, Rice (rice (Oryza sativa)): 0; Plant response rating, Sedge, Umbrella [18]: 0
